Assays:
mouse ENT-1 transporter = target: T1, mouse ENT-1 transporter (Mus musculus, UniProt Q9JIM1); assay: Adenosine transport activity (ENT1, [3H]-adenosine uptake); format: cell-based; conditions: stable cells expressing mouse ENT-1; [2,8-3H]-adenosine 6 nM, 20 min
T1 construct: expressed in transfected cells
T1 sequence (Q9JIM1 1-460): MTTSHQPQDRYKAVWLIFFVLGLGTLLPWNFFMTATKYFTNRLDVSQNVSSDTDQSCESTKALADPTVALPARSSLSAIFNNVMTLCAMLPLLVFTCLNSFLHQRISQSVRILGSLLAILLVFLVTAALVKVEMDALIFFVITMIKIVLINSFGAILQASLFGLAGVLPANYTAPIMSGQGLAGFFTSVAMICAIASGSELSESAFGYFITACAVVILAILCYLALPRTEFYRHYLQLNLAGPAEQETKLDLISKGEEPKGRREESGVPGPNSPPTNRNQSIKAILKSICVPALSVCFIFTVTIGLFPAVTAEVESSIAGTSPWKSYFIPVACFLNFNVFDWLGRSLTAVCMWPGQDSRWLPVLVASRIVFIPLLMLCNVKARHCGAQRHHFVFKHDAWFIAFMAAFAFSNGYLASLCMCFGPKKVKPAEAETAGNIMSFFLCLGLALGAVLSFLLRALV
Experimental: To measure adenosine transport activity of ENT-1 mammalian cells, stable cells expressing the mouse ENT-1 transporter were plated on day 1 in 96-well culture plates at the density of 60,000 cells/well, in complete DMEM/F12 medium supplemented with glutamax, 10% FBS and 10 μg/ml puromycin. On day 2, the medium was aspirated and the cells were washed twice with uptake buffer (10 mM Hepes-Tris, pH 7.4 containing 150 mM NaCl, 1 mM CaCl2, 2.5 mM KCl, 2.5 mM MgSO4, 10 mM D-glucose) (UB). For inhibition experiments, cells were then incubated at RT with various concentrations of compounds with 1% DMSO final. Non-specific uptake was defined in the presence of 10 μM S-(4-Nitrobenzyl)-6-thioinosine (NBTI, Sigma Cat #N2255).
A solution containing [2,8-^3H]-adenosine 6 nM (40 Ci/mmol, American Radiolabeled chemicals Inc, Cat #ART 0287A) was then immediately added to the wells. The plates were then incubated for 20 min with gentle shaking and the reaction was stopped by aspiration of the mixture and washing (three times) with ice-cold UB. The cells were lysed by the addition of scintillation liquid, shaken 3 hours and the radioactivity in the cells was estimated using a microplates scintillation counter (TopCount NXT, Packard).

[1] = system: L-687,414-induced hyperlocomotion; assay: Reduction of L-687,414-induced hyperlocomotion; format: in vivo, mouse; conditions: mice, dose 30 mg/kg ip, 15 min before s.c. 50 mg/kg L-687,414
Source text: The authors described that hyperlocomotion induced by L-687,414 was inhibited by a series of known antipsychotic drugs. […] These findings predict antipsychotic activity for the present compounds, making them useful for the treatment of positive (psychosis) and negative symptoms of schizophrenia, substance abuse, alcohol and drug addiction, obsessive-compulsive disorders, cognitive impairment, bipolar disorders, mood disorders, major depression, resistant depression, anxiety disorders, Alzheimer's disease, autism, Parkinson's disease, chronic pain, borderline personality disorder, sleep disturbances, chronic fatigue syndrome, stiffness, antiinflammatory effects in arthritis and balance problems, epilepsy and neurodevelopmental disorders with co-morbid epilepsy.
The described compounds of formula I reduce L-687,414-induced hyperlocomotion. This was assessed by using a computerized Digiscan 16 Animal Activity Monitoring System (Omnitech Electronics, Columbus, Ohio) to quantify locomotor activity. Animals were kept under a 12 h light/dark cycle and experiments were performed during the light period. Each activity monitoring chamber consisted of a Plexiglas box (41×41×28 cm; W×L×H) with sawdust bedding on the floor surrounded by invisible horizontal and vertical infrared sensor beams. The test boxes were divided by a Plexiglas cross providing each mouse with 20×20 cm of moving space. Cages were connected to a Digiscan Analyzer linked to a computer that constantly collected the beam status information. Records of photocell beam interruptions for individual animals were taken every 5 min over the duration of the experimental session and the sum of the first 6 periods was used as the final parameter. At least 8 mice were used in each treatment group. Compounds were administered i.p. 15 min before a s.c. injection of 50 mg/kg of L-687,414. Mice were then transferred from their home cage to the recording chambers for a 15-min habituation phase allowing free exploration of the new environment. Horizontal activity was then recorded for a 30-min time period. The % inhibition of L-687,414-induced hyperlocomotion was calculated according to the equation: ((Veh+L-687,414 horizontal activity−drug+L-687,414 horizontal activity)/Veh+L-687,414 horizontal activity)×100
ID50 values, defined as doses of each compound producing 50% inhibition of L-687,414-induced hyperlocomotion, were calculated by linear regression analysis of a dose-response data using an Excel-based computer-fitting program. As data was not presupposed to be normally distributed, groups treated with test compounds were statistically compared with the control (vehicle-treated) group using one-tailed Mann Whitney U tests. In statistics, the Mann-Whitney U test (also called the Mann-Whitney-Wilcoxon (MWW) or Wilcoxon rank-sum test) is a non-parametric statistical hypothesis test for assessing whether one of two samples of independent observations tends to have larger values than the other. It is one of the most well-known non-parametric significance tests. […] P values given in table 1 are one-tailed since only decreases in locomotion were expected and tested for (Mann, H. B., Whitney, D. R. (1947), “On a Test of Whether one of Two Random Variables is Stochastically Larger than the Other”, Annals of Mathematical Statistics, 18 (1), 50-60).

SMILES | IC50 (mouse ENT-1 transporter) [nM] | Inhibition, ip [%] of L-687,414-induced hyperlocomotion [1] [%]
CNC(=O)c1cncc(N2C(=O)C(C)(C)c3ccc(-c4cnc(C)nc4)cc32)n1 [Example 2, 6-(3,3-Dimethyl-6-(2-methylpyrimidin-5-yl)-2-oxoindolin-1-yl)-N-methylpyrazine-2-carboxamide] | 28 | 97.5
COCCNC(=O)c1cncc(N2C(=O)C(C)(C)c3ccc(-c4cnc(C)nc4)cc32)n1 [Example 7, 6-(3,3-Dimethyl-6-(2-methylpyrimidin-5-yl)-2-oxoindolin-1-yl)-N-(2-methoxyethyl)pyrazine-2-carboxamide] | 88.4 | 88.1
Cc1ncc(-c2ccc3c(c2)N(c2cnc(C(=O)N(C)C)cn2)C(=O)C3(C)C)cn1 [Example 11, 5-[3,3-Dimethyl-6-(2-methylpyrimidin-5-yl)-2-oxoindol-1-yl]-dimethylpyrazine-2-carboxamide] | 123 | 98.4
CNC(=O)c1ccnc(N2C(=O)C(C)(C)c3ccc(-c4cnc(C)nc4)cc32)n1 [Example 16, 2-(3,3-Dimethyl-6-(2-methylpyrimidin-5-yl)-2-oxoindolin-1-yl)-N-methylpyrimidine-4-carboxamide] | 241 | 94.6
CNC(=O)c1cccc(N2C(=O)C(C)(C)c3ccc(-c4cnc(C)nc4)cc32)n1 [Example 22, 6-(3,3-Dimethyl-6-(2-methylpyrimidin-5-yl)-2-oxoindolin-1-yl)-N-methylpicolinamide] | 8.5 | 95.6
Cc1ncc(-c2ccc3c(c2)N(c2cccc(C(=O)NC4CC4)n2)C(=O)C3(C)C)cn1 [Example 24, N-Cyclopropyl-6-(3,3-dimethyl-6-(2-methylpyrimidin-5-yl)-2-oxoindolin-1-yl)picolinamide] | 45.8 | 99.1
Cc1ncc(-c2ccc3c(c2)N(c2ccc(C(=O)N(C)C)cn2)C(=O)C3(C)C)cn1 [Example 29, 6-(3,3-Dimethyl-6-(2-methylpyrimidin-5-yl)-2-oxoindolin-1-yl)-N,N-dimethylnicotinamide] | 585 | 93

From patent US11066393B2, “Indolin-2-one derivatives” (Hoffmann-La Roche Inc., priority 2015, dated 2021)
